From patent US7709600B2, “Interaction between the VHL tumor suppressor and hypoxia inducible factor, and assay methods relating thereto” (Isis Innovation Limited, priority 1999, dated 2010)
Like-named read-outs stand apart in the source and are kept apart here.

Columns and labels:
HIF-1α = experiment: In vitro ubiquitylation assay for HIF-1α; assay type: biochemical, human
Description: To test the hypothesis that pVHL is a necessary component of a ubiquitin ligase complex recognising HIF-α we developed an in vitro ubiquitylation assay for HIF-1α. In this assay, cell extracts (initially from Cos-7) were incubated with [^35S]labelled HIF-1α prepared in vitro in reticulocyte lysates. This was used as substrate in reactions with different combinations of extract, an ATP-regenerating system, ubiquitin aldehyde, and methylated ubiquitin. Reactions were incubated at 30° C. for 270 minutes before analysis by SDS-PAGE.
Incubation with extract alone converted the HIF-1α substrate to a slower migrating form, an effect which was enhanced by an ATP-regenerating system, and was prevented by addition of the protein kinase inhibitor 2-aminopurine. […] This assignment was confirmed by enhancement with addition of ubiquitin aldehyde, an isopeptidase inhibitor that prevents the breakdown of ubiquitin conjugates.
An experiment similar to that of section (h) above was performed but with the omission of ubiquitin aldehyde. pVHL was generated by in vitro transcription translation, and HIF-1α was also generated in reticulocyte lysate in the presence or absence of 100 μM Fe2+ and Fe3+. […] Thus assays of the invention may be used for the identification of compounds acting at a point distal to the HIF-pVHL interaction (i.e. not altering binding but interfering with tagging or destruction). It also provides further evidence for modifications of HIF influencing its ability to bind pVHL. […]
In vitro ubiquitylation assay. […] Aliquots were removed at indicated times, mixed with SDS sample buffer and analysed by SDS-PAGE and autoradiography. Gels were quantitated using a Storm 840 PhosphorImager (Molecular Dynamics).

pVHL-HIF-1α interaction [1] = target: pVHL-HIF-1α interaction (Homo sapiens, UniProt P40337+Q16665); experiment: pVHL interaction with HIF-1α sequences translated in reticulocyte lysate in the presence of metal ions; assay type: binding
pVHL-HIF-1α interaction [2] = experiment: as above; assay type: binding, human; conditions: subsequences 556-574, 549-574, 556-582, 549-582; 100 μM Fe2+ and 100 μM Fe3+
pVHL/HIF-1 complex = pVHL/HIF-1 complex (Homo sapiens, UniProt P40337+Q16665); experiment: EMSA / anti-pVHL supershift of the HIF-1 DNA binding complex from treated RCC4/VHL cells; conditions: for HIF-1 complex species seen in EMSA: RCC4/VHL cells cultured four hours, 100 μM
[3] = tested on: pVHL interaction with HIF-1α and HIF-2α; experiment: Anti-pVHL immunoprecipitation of RCC4/VHL cell extracts, immunoblot for HIF α subunits; conditions: treated RCC4/VHL cells, compared with hypoxic cells
[4] = full HIF-1α, 100 μM ion during translation

Compound	interaction of pVHL with HIF-1α translated in the presence of the ion (pVHL-HIF-1α interaction [1]; [4])	HIF-1 complex species seen in EMSA (pVHL/HIF-1 complex)	HIF-1α and HIF-2α contained in anti-pVHL immunoprecipitates [3]	also measured
Nc1ncc2[nH]cnc2n1 [2-aminopurine]				conversion of HIF-1α substrate to a slower migrating form (phosphorylation) (HIF-1α; Cos-7 cell extract, 30° C.): prevented
iron	enhances			amount of interaction of pVHL with HIF-1 subsequences (pVHL-HIF-1α interaction [2]): substantial increase; ubiquitylation of HIF-1α produced in the presence of the ions (HIF-1α; HIF-1α generated in reticulocyte lysate with 100 μM Fe2+ and Fe3+, ubiquitin aldehyde omitted): Enhanced ubiquitylation
[Ni+2] [nickel]				interaction of pVHL with HIF-1α translated in the presence of the ion (pVHL-HIF-1α interaction [1]): diminishes
[Cl-].[Cl-].[Co+2] [cobalt, cobaltous chloride]	diminishes	only the faster mobility HIF-1 complex	neither protein was contained	
CC(=O)N(O)CCCCCNC(=O)CCC(=O)N(O)CCCCCNC(=O)CCC(=O)N(O)CCCCCN [desferrioxamine]		only the faster mobility HIF-1 complex	neither protein was contained	pVHL/HIF-1 complex forming (pVHL/HIF-1 complex; treatment four hours prior to hypoxia): prevented
ubiquitin aldehyde				generation of high molecular weight polyubiquitylated HIF-1α species (HIF-1α; Cos-7 cell extract, 30° C., 270 minutes): enhancement
